From ChEMBL document CHEMBL4507276 (2021)

What was measured:
[1] = test system: Epidermal growth factor receptor (Homo sapiens), P00533 [L858R]; conditions: Compound concentration 1000.0 nM
[2] = test system: Serine/threonine-protein kinase B-raf (Homo sapiens), P15056 [V600E]; conditions: Compound concentration 1000.0 nM
[3] = biological target: Dual specificity mitogen-activated protein kinase kinase 4 (Homo sapiens) (UniProt P45985); conditions: Compound concentration 1000.0 nM
[4] = biological target: Mitogen-activated protein kinase kinase kinase 12 (Homo sapiens) (UniProt Q12852); conditions: Compound concentration 1000.0 nM
[5] = biological target: Serine/threonine-protein kinase MARK2 (Homo sapiens) (UniProt Q7KZI7); conditions: Compound concentration 1000.0 nM
[6] = biological target: Tyrosine-protein kinase receptor Tie-1 (Homo sapiens) (UniProt P35590); conditions: Compound concentration 1000.0 nM
[7] = test system: Fibroblast growth factor receptor 3 (Homo sapiens), P22607 [G697C]; conditions: Compound concentration 1000.0 nM
[8] = test system: Receptor-type tyrosine-protein kinase FLT3 (Homo sapiens), P36888 [UNDEFINED MUTATION]; conditions: Compound concentration 1000.0 nM
[9] = biological target: Phosphatidylinositol 4-phosphate 5-kinase type-1 alpha (Homo sapiens) (UniProt Q99755); conditions: Compound concentration 1000.0 nM
[10] = biological target: Serine/threonine-protein kinase DCLK3 (Homo sapiens) (UniProt Q9C098); conditions: Compound concentration 1000.0 nM
[11] = biological target: Platelet-derived growth factor receptor beta (Homo sapiens) (UniProt P09619); conditions: Compound concentration 1000.0 nM
[12] = biological target: STE20/SPS1-related proline-alanine-rich protein kinase (Homo sapiens) (UniProt Q9UEW8); conditions: Compound concentration 1000.0 nM
[13] = biological target: Myosin-IIIa (Homo sapiens) (UniProt Q8NEV4); conditions: Compound concentration 1000.0 nM
[14] = biological target: Ribosomal protein S6 kinase alpha-5 (Homo sapiens) (UniProt O75582); conditions: Compound concentration 1000.0 nM
[15] = biological target: G protein-coupled receptor kinase 4 (Homo sapiens) (UniProt P32298); conditions: Compound concentration 1000.0 nM
[16] = test system: Phosphatidylinositol 4,5-bisphosphate 3-kinase catalytic subunit alpha isoform (Homo sapiens), P42336 [E542K]; conditions: Compound concentration 1000.0 nM
[17] = biological target: Myosin light chain kinase (Homo sapiens) (UniProt Q32MK0); conditions: Compound concentration 1000.0 nM
[18] = biological target: Serine/threonine-protein kinase B-raf (Homo sapiens) (UniProt P15056); conditions: Compound concentration 1000.0 nM
[19] = biological target: Serine/threonine-protein kinase PAK 2 (Homo sapiens) (UniProt Q13177); conditions: Compound concentration 1000.0 nM
[20] = biological target: Ephrin type-A receptor 6 (Homo sapiens) (UniProt Q9UF33); conditions: Compound concentration 1000.0 nM
[21] = biological target: Serine/threonine-protein kinase MRCK beta (Homo sapiens) (UniProt Q9Y5S2); conditions: Compound concentration 1000.0 nM
[22] = test system: Tyrosine-protein kinase ABL1 (Homo sapiens), P00519 [F317L]; conditions: Compound concentration 1000.0 nM
[23] = biological target: AP2-associated protein kinase 1 (Homo sapiens) (UniProt Q2M2I8); conditions: Compound concentration 1000.0 nM
[24] = biological target: Serine/threonine-protein kinase MRCK alpha (Homo sapiens) (UniProt Q5VT25); test: CDC42 BPA Invitrogen selectivity data (BI); conditions: Compound concentration 3.0 uM
[25] = biological target: B2 bradykinin receptor (Homo sapiens) (UniProt P30411); test: B2/HUM Cerep selectivity data (BI); conditions: Compound concentration 20.0 uM
[26] = biological target: Serine/threonine-protein kinase PLK3 (Homo sapiens) (UniProt Q9H4B4); test: PLK3 Invitrogen selectivity data (BI); conditions: Compound concentration 3.0 uM
[27] = biological target: 3',5'-cyclic-AMP phosphodiesterase 4D (Homo sapiens) (UniProt Q08499); test: PDE4D2 Cerep selectivity data (BI); conditions: Compound concentration 20.0 uM
[28] = biological target: T1, Mitogen-activated protein kinase 12 (Homo sapiens) (UniProt P53778); test: MAPK12 Invitrogen selectivity data (BI); conditions: Compound concentration 3.0 uM
T1 sequence (whole entry): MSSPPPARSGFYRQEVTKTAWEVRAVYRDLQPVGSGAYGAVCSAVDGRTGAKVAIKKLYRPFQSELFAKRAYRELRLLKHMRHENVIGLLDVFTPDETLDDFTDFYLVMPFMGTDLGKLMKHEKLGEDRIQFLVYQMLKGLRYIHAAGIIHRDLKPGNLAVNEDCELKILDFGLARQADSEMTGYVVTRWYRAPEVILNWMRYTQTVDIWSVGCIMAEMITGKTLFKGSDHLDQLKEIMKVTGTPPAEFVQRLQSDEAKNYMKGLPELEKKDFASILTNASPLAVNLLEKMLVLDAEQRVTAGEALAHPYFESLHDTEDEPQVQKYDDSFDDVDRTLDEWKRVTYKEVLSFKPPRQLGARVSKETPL

[29] = biological target: Corticotropin-releasing factor receptor 1 (Homo sapiens) (UniProt P34998); test: CRF1/H Cerep selectivity data (BI); conditions: Compound concentration 20.0 uM
[30] = biological target: 5-hydroxytryptamine receptor 2B (Homo sapiens) (UniProt P41595); test: 5HT2B/HU Eurofins-Panlabs selectivity data (BI); conditions: Compound concentration 10.0 uM
[31] = biological target: Serine/threonine-protein kinase Nek4 (Homo sapiens) (UniProt P51957); test: NEK4 Invitrogen selectivity data (BI); conditions: Compound concentration 3.0 uM
[32] = biological target: Melanocyte-stimulating hormone receptor (Mus musculus) (UniProt Q01727); test: MC1_AGON Cerep selectivity data (BI); conditions: filed as agonist, Compound concentration 20.0 uM
[33] = biological target: Calcium/calmodulin-dependent protein kinase type 1D (Homo sapiens) (UniProt Q8IU85); test: CAMK1D Invitrogen selectivity data (BI); conditions: Compound concentration 3.0 uM
[34] = biological target: Sodium/potassium-transporting ATPase subunit alpha-1 (Sus scrofa) (UniProt P05024); test: ATPASE(NA/K) Cerep selectivity data (BI); conditions: Compound concentration 20.0 uM
[35] = biological target: Tyrosine-protein kinase Fyn (Homo sapiens) (UniProt P06241); test: FYN Invitrogen selectivity data (BI); conditions: Compound concentration 3.0 uM

Measured: residual activity

Chain of Ribosomal protein S6 kinase alpha-5 (Homo sapiens) (O75582 whole entry, looked up): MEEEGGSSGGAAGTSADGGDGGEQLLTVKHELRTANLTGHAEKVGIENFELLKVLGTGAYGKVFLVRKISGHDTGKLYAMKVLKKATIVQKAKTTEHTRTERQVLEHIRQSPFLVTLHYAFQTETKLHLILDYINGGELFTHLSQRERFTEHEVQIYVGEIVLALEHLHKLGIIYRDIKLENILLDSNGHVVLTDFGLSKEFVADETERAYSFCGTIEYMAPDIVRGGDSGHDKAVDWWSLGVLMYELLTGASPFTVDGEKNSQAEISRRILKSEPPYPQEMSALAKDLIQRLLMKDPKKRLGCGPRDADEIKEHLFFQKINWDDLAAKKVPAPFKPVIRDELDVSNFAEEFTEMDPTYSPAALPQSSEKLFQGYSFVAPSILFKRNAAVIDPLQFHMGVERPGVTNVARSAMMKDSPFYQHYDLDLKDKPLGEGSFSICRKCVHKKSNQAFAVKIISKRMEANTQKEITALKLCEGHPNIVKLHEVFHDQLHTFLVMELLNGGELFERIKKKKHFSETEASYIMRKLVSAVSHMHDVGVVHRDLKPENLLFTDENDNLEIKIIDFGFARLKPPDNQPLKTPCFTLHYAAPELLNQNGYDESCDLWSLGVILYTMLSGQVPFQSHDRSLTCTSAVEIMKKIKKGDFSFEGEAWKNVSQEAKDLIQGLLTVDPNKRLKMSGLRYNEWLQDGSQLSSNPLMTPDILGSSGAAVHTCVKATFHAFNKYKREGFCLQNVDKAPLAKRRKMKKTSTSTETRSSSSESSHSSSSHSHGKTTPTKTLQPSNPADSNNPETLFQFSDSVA
Chain of Myosin light chain kinase (Homo sapiens) (Q32MK0 whole entry): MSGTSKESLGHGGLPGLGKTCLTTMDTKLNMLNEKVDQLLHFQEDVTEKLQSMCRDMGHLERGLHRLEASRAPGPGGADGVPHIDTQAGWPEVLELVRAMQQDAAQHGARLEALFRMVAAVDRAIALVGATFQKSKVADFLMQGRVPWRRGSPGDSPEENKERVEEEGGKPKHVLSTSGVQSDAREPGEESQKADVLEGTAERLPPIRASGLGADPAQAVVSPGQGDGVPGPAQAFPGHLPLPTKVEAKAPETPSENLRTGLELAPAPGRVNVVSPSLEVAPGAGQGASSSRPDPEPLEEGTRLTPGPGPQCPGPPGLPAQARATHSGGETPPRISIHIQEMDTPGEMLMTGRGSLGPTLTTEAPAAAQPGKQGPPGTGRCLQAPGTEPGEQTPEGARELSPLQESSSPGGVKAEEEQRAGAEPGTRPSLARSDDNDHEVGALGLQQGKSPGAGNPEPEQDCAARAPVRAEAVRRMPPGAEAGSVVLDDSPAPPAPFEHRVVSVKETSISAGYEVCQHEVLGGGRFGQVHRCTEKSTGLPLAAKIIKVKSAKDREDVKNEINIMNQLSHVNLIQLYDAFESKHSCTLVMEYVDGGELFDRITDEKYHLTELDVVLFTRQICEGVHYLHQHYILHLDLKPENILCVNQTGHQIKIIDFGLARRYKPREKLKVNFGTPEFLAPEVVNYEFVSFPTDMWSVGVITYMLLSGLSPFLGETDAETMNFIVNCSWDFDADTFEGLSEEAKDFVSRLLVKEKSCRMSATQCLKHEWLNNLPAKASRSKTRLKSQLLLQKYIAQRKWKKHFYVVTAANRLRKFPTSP
Chain of Dual specificity mitogen-activated protein kinase kinase 4 (Homo sapiens) (P45985 whole entry): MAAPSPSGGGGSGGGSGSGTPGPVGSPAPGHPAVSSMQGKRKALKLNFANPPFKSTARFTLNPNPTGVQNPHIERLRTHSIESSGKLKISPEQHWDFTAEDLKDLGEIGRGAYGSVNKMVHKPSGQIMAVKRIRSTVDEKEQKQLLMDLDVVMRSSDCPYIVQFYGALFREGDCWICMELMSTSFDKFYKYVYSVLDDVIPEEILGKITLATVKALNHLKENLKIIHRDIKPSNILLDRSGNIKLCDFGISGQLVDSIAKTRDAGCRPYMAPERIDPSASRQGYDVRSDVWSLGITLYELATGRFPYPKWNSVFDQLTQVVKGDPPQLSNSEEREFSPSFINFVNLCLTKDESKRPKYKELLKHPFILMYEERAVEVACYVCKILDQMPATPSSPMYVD
Chain of Serine/threonine-protein kinase DCLK3 (Homo sapiens) (Q9C098 whole entry): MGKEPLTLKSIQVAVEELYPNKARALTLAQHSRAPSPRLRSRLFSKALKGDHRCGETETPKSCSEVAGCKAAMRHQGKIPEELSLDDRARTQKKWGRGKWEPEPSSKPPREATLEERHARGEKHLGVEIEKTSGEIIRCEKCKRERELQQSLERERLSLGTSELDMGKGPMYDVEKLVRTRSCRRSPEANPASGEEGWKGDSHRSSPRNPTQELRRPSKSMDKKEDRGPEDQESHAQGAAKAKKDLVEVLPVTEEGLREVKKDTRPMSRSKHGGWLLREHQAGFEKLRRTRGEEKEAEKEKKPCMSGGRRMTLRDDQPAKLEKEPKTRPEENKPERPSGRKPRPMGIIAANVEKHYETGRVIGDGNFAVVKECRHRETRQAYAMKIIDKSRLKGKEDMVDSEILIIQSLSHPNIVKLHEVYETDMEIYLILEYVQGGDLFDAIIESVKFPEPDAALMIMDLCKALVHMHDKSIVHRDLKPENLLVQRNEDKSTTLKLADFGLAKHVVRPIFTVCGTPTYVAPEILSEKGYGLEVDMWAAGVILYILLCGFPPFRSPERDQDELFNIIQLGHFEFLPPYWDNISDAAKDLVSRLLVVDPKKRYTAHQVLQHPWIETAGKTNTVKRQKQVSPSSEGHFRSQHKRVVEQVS
Chain of Receptor-type tyrosine-protein kinase FLT3 (Homo sapiens), P36888 [UNDEFINED MUTATION] (P36888 whole entry, looked up, change not shown): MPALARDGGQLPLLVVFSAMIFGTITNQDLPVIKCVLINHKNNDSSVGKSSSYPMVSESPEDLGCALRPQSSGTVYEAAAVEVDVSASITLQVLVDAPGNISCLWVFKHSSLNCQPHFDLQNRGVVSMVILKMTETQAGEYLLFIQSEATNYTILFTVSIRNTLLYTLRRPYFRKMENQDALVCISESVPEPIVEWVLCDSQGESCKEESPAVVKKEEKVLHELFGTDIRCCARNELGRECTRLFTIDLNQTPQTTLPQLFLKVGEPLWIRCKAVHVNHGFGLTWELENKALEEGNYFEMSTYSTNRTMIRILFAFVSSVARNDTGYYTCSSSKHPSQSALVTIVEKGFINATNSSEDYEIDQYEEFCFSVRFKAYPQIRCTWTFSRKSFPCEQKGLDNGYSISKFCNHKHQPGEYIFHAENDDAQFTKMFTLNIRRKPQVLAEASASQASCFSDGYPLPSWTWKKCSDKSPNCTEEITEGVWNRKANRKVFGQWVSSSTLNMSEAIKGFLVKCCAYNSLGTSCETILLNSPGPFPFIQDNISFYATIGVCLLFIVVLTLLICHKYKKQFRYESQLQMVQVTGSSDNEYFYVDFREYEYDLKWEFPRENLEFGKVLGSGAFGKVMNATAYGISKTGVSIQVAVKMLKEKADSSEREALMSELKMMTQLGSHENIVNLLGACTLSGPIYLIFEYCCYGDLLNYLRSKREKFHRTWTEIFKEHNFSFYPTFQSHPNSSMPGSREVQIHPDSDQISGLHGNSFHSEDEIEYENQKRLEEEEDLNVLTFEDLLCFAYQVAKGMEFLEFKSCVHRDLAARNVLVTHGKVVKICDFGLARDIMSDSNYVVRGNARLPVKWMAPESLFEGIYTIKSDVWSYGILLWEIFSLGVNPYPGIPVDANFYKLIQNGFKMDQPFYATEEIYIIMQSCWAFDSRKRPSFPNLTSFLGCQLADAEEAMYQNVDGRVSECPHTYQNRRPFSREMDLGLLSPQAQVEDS
Chain of Platelet-derived growth factor receptor beta (Homo sapiens) (P09619 whole entry): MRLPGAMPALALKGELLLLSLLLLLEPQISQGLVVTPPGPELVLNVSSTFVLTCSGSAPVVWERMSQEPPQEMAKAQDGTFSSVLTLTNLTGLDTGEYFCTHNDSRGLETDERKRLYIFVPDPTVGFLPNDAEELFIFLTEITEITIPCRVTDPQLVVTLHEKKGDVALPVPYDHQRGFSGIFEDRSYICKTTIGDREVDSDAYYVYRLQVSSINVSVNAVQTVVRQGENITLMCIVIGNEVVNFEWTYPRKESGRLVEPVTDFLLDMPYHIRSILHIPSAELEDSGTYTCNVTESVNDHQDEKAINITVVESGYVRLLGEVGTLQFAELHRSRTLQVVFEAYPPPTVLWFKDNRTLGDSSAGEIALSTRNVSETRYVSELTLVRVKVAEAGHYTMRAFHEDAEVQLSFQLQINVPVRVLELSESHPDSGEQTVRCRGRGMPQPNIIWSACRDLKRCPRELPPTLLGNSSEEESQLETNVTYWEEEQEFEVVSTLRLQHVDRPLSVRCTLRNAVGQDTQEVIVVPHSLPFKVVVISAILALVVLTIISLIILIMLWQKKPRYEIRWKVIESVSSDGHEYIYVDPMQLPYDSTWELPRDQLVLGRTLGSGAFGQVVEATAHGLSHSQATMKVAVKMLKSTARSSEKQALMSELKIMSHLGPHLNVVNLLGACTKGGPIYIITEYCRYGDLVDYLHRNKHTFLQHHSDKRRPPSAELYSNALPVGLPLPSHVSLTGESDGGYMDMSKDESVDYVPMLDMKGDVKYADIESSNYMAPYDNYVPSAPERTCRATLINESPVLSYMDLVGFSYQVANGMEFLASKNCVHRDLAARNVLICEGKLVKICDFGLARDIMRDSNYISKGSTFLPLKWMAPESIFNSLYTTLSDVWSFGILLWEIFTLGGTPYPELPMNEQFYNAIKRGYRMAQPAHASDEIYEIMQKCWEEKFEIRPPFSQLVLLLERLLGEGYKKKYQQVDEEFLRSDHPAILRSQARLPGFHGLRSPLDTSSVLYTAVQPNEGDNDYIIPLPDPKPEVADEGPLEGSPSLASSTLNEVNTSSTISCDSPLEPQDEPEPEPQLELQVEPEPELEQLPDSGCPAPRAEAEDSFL

CN(C)C(=O)Cn1cc(-c2nc(C3(c4ccc(-c5cnc(N)nc5)cc4)CC3)no2)cn1 [BI 0153]
inactive: [1] 86% | [2] 87% | [3] 93% | [4] 100% | [5] 92% | [6] 98% | [7] 100% | [8] 89% | [9] 95% | [10] 100% | [11] 94% | [12] 100% | [13] 100% | [14] 98% | [15] 100% | [16] 76% | [17] 100% | [18] 88% | [19] 100% | [20] 99% | [21] 85% | [22] 55% | [23] 100%

CN(C)C(=O)Cn1cc(-c2nc([C@@](C)(c3ccc(-c4cnc(N)nc4)cc3)C3CC3)no2)cn1 [BI 665915]
inactive: [1] 100% | [2] 89% | [3] 100% | [4] 80% | [5] 100% | [24] 102% | [25] 102% | [26] 98% | [6] 90% | [27] 82% | [7] 89% | [8] 62% | [28] 91.5% | [9] 90% | [10] 96% | [11] 82% | [29] 148% | [12] 81% | [13] 100% | [30] 97% | [14] 93% | [15] 86% | [16] 79% | [31] 97% | [32] 101% | [17] 100% | [33] 96% | [18] 82% | [34] 99% | [19] 90% | [20] 100% | [21] 99% | [22] 66% | [23] 100% | [35] 96.5%
